The record followed here is ChEMBL document CHEMBL4480359, “Phosphotyrosine prodrugs: design, synthesis and anti-STAT3 activity of ISS-610 aryloxy triester phosphoramidate prodrugs” (Medchemcomm, 2019).

Calls of active or inactive are those of the source. The rule behind the calls is not given here.

Series [1] has as its target Signal transducer and activator of transcription 3 (Homo sapiens) (UniProt P40763). Description: Inhibition of STAT3 dimerization in human MDA-MB-231 cells assessed as down-regulation of survivin protein expression at 0.1 to 100 uM after 24 hrs by Western blot analysis. The format is cell-based. In general terms: In western blotting, separated proteins are transferred to a membrane and probed.

Series [2] shares this target. Put plainly: Inhibition of STAT3 dimerization in human MDA-MB-231 cells assessed as down-regulation of survivin protein expression at 30 uM after 24 hrs by Western blot analysis. The format is cell-based.
For series [3] the target is unchanged. Description: Inhibition of STAT3 dimerization in human MDA-MB-231 cells assessed as down-regulation of Bcl-xl protein expression at 0.1 to 100 uM after 24 hrs by Western blot analysis. Type of series: cell-based.
The nature of series [4]: Stability in human serum assessed as phosphorus peak formation measured over 12 hrs by [31P]-NMR analysis. The format is ADME, cell-free.
Series [5] in a line: Stability in human serum incubated for 12 hrs by mass spectrometric analysis. The format is ADME, cell-free.

Signal transducer and activator of transcription 3 (Homo sapiens), sequence (P40763 whole entry): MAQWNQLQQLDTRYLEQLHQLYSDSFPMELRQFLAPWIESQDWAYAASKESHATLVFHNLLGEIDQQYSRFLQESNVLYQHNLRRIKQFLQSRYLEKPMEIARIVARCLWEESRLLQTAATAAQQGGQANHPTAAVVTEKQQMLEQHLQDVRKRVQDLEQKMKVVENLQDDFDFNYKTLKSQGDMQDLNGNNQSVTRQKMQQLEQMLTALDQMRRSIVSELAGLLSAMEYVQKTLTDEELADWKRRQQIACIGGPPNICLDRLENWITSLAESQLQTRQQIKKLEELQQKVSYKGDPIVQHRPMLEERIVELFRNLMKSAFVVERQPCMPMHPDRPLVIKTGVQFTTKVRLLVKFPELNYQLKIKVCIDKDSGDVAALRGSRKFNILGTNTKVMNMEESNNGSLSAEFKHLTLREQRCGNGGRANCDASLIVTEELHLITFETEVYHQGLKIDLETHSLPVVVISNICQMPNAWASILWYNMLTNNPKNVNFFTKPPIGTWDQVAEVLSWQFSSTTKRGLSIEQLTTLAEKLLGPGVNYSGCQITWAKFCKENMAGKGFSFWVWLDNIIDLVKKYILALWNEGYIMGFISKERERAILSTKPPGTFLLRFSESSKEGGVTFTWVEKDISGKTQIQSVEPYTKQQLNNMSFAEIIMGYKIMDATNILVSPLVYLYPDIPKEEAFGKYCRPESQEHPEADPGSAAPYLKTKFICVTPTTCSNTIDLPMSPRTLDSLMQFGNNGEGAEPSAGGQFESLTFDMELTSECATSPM

Take `COC(=O)[C@H](C)NP(=O)(Oc1ccc(C[C@H](NC(=O)c2ccc(C#N)cc2)C(=O)N[C@@H](CC(C)C)C(=O)OC)cc1)Oc1cccc2ccccc12` (some centres undefined): the inhibition result in series [1], in series [2] and in series [3] was “Active” in each case.
`COC(=O)[C@H](CC(C)C)NC(=O)[C@H](Cc1ccc(OP(=O)(N[C@@H](C)C(=O)OC(C)C)Oc2cccc3ccccc23)cc1)NC(=O)c1ccc(C#N)cc1` (some centres undefined): the inhibition result in series [1], in series [2] and in series [3] was “Active” throughout. The Stability entry in series [4] and in series [5] was “Stable” in each case.
For `CC(C)C[C@H](NC(=O)[C@H](Cc1ccc(OP(=O)(O)O)cc1)NC(=O)c1ccc(C#N)cc1)C(=O)O`, the inhibition result in series [1] and in series [3] was “inactive” each time.
On to `COC(=O)[C@H](CC(C)C)NC(=O)[C@H](Cc1ccc(OP(=O)(N[C@@H](C)C(=O)OCc2ccccc2)Oc2cccc3ccccc23)cc1)NC(=O)c1ccc(C#N)cc1` (some centres undefined), for which the inhibition entry in series [1] and in series [3] was “Active” in each case.
For `COC(=O)[C@H](CC(C)C)NC(=O)[C@H](Cc1ccc(OP(=O)(O)O)cc1)NC(=O)c1ccc(C#N)cc1`, the inhibition result in series [1] and in series [3] was “inactive” throughout.
